Measurements as given in patent publication US11000033B2, “Ketone or oxime compound, and herbicide” (NISSAN CHEMICAL CORPORATION, priority 2014, dated 2021).

Columns and labels:
Type in all cases: in vivo
[1] = system: Echinochloa crus-galli var. crus-galli; test: Test Example 5: herbicidal effect by foliage application, plastic box (symbol H); conditions: 320 g/ha, 3 weeks after application
Outline: (§1)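 Seeds were sown in sterilized diluvial soil, covered with about 1.5 cm of soil and grown 14 days in a greenhouse at 25° C. to 30° C. An emulsifiable formulation diluted in water to a set rate was sprayed over foliage, and injury was scored 3 weeks later.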

beet = test: Test Example 5: effect on crop by foliage application, plastic box (symbol f); conditions: 320 g/ha, 3 weeks after application
Outline: (§2)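 Crop and weed seeds sown in spots in sterilized diluvial soil in plastic boxes and covered with about 1.5 cm soil. Plants raised in a greenhouse at 25° C. to 30° C. for foliar application.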

Digitaria ciliaris = test: Test Example 4: herbicidal effect by soil treatment (symbol F)
Outline: (§3)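 Seeds were sown in sterilized diluvial soil, covered with about 1.5 cm of soil, and the soil surface was sprayed with a water-diluted emulsion of the compound at a predetermined rate. Plants grew in a greenhouse at 25° C. to 30° C.; effects were scored visually 3 weeks after application.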

Scirpus juncoides = test: Test Example 1: herbicidal activity, application before weed generation in submerged conditions (symbol B); conditions: application herbicide amount 320 g/ha
Outline: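 Paddy pre-emergence test. Formulated emulsion, water-diluted to a predetermined rate, is applied to floodwater on sowing day; rice transplanted at 2.5 leaves. Effect read at 3 weeks on a 0–5 herbicidal-ratio scale.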

Veronica persica = test: Test Example 4: herbicidal effect by soil treatment (symbol R)
Outline: as §3

Monochoria vaginalis = test: Test Example 2: herbicidal activity, application during weed generation in submerged conditions (symbol C); conditions: Table 23; application herbicide amount 320 g/ha; grade 0-5 by criteria of Test Example 1
Outline: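 Seeds sown in flooded alluvial soil (4 cm water) were grown in a 25-30° C greenhouse. At the one- to two-leaf stage, diluted emulsion of compound was applied to the water surface at a predetermined rate. Effect was scored 3 weeks later.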

[2] = system: directly sowed rice plant; test: Test Example 3: effect on crop by foliage application, Wagner pot (symbol b); conditions: application herbicide amount 320 g/ha; for b (directly sowed rice plant) effect on crop grade: Table 24
Outline: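 Alluvial soil in a 1/10000-are Wagner pot was flooded to a water depth of 0.1–0.5 cm. Echinochloa crus-galli var. crus-galli, Leptochloa chinensis, Cyperus difformis and rice were sown into it and grown in a greenhouse at 25–30 °C.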

[3] = system: Echinochloa crus-galli var. crus-galli; test: Test Example 4: herbicidal effect by soil treatment (symbol H)
Outline: as §3

soybean [4] = test: Test Example 5: effect on crop by foliage application, plastic box (symbol d); conditions: 320 g/ha, 3 weeks after application
Outline: as §2

rapeseed = test: Test Example 5: effect on crop by foliage application, plastic box (symbol g); conditions: 320 g/ha, 3 weeks after application
Outline: as §2

soybean [5] = test: Test Example 4: effect on crop by soil treatment (symbol d); conditions: for d: soybean, effect grade on crop: 320 g/ha
Outline: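 Steps: fill box with sterilized diluvial soil; sow seed spot-like; cover with ~1.5 cm soil; grow in greenhouse (25° C. to 30° C.).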

Setaria viridis [6] = test: Test Example 5: herbicidal effect by foliage application, plastic box (symbol G); conditions: 320 g/ha, 3 weeks after application
Outline: as §1

Galium spurium = test: Test Example 5: herbicidal effect by foliage application, plastic box (symbol Q); conditions: 320 g/ha, 3 weeks after application
Outline: as §1

Setaria viridis [7] = test: Test Example 4: herbicidal effect by soil treatment (symbol G)
Outline: as §3

Stellaria media = test: Test Example 4: herbicidal effect by soil treatment (symbol P)
Outline: as §3

[8] = application herbicide amount 320 g/ha

Structure (SMILES): Cc1cc(C)c(C2=C(O)CC(CC(=NOCC(F)(F)F)C3CC3)C2=O)c(C)c1 (stereo not drawn) [1-131]
- H: Echinochloa crus-galli var. crus-galli, herbicidal effect (criteria 0-5) [1]: 4 (Herbicidal ratio of 70% or higher and lower than 90%)
- f: beet, effect on crop (criteria 0-5) (beet): 0 (Herbicidal ratio of 5% or lower (almost no effect))
- F: Digitaria ciliaris, herbicidal effect grade (Digitaria ciliaris; 320 g/ha): 4 (Herbicidal ratio of 70% or higher and lower than 90%)
- Herbicidal effect grade, B: Scirpus juncoides (Scirpus juncoides): 4 (Herbicidal ratio of 70% or higher and lower than 90%)
- R: Veronica persica, herbicidal effect grade (Veronica persica; 320 g/ha): 3 (Herbicidal ratio of 40% or higher and lower than 70%)
- Herbicidal effect grade, C: Monochoria vaginalis (Monochoria vaginalis): 0 (Herbicidal ratio of 5% or lower (almost no effect))
- effect on crop b (directly sowed rice plant), grade 0-5 [2]: 5 (Herbicidal ratio of 90% or more (almost completely withered))
- H: Echinochloa crus-galli var. crus-galli, herbicidal effect grade ([3]; 320 g/ha): 5 (Herbicidal ratio of 90% or more (almost completely withered))
- d: soybean, effect on crop (criteria 0-5) (soybean [4]): 0 (Herbicidal ratio of 5% or lower (almost no effect))
- g: rapeseed, effect on crop (criteria 0-5) (rapeseed): 5 (Herbicidal ratio of 90% or more (almost completely withered))
- d: soybean, effect grade on crop (soybean [5]): 0 (Herbicidal ratio of 5% or lower (almost no effect))
- G: Setaria viridis, herbicidal effect (criteria 0-5) (Setaria viridis [6]): 5 (Herbicidal ratio of 90% or more (almost completely withered))
- Q: Galium spurium, herbicidal effect (criteria 0-5) (Galium spurium): 0 (Herbicidal ratio of 5% or lower (almost no effect))
- G: Setaria viridis, herbicidal effect grade (Setaria viridis [7]; 320 g/ha): 5 (Herbicidal ratio of 90% or more (almost completely withered))
- P: Stellaria media, herbicidal effect grade (Stellaria media; 320 g/ha): 0 (Herbicidal ratio of 5% or lower (almost no effect))

Structure (SMILES): Cc1cc(-n2cc(Cl)cn2)cc(C)c1C1=C(O)CC(CC(=NOCC(F)(F)F)C(C)C)C1=O (stereo not drawn) [9-014]
- H: Echinochloa crus-galli var. crus-galli, herbicidal effect grade [1]: 5 (Herbicidal ratio of 90% or more (almost completely withered))
- f: beet, effect on crop grade (beet): 0 (Herbicidal ratio of 5% or lower (almost no effect))
- Herbicidal effect grade, F: Digitaria ciliaris (Digitaria ciliaris; [8]): 4 (Herbicidal ratio of 70% or higher and lower than 90%)
- B (Scirpus juncoides) herbicidal effect grade (Scirpus juncoides): 4 (Herbicidal ratio of 70% or higher and lower than 90%)
- Herbicidal effect grade, R: Veronica persica (Veronica persica; [8]): 0 (Herbicidal ratio of 5% or lower (almost no effect))
- Herbicidal effect grade, C: Monochoria vaginalis (Monochoria vaginalis): 0 (Herbicidal ratio of 5% or lower (almost no effect))
- b (directly sowed rice plant) effect on crop grade [2]: 5 (Herbicidal ratio of 90% or more (almost completely withered))
- Herbicidal effect grade, H: Echinochloa crus-galli var. crus-galli [3, 8]: 1 (Herbicidal ratio of 5% or higher and lower than 20%)
- d: soybean, effect on crop grade (soybean [4]): 0 (Herbicidal ratio of 5% or lower (almost no effect))
- g: rapeseed, effect on crop grade (rapeseed): 2 (Herbicidal ratio of 20% or higher and lower than 40%)
- Effect on crop grade, d: soybean (soybean [5]; [8]): 0 (Herbicidal ratio of 5% or lower (almost no effect))
- G: Setaria viridis, herbicidal effect grade (Setaria viridis [6]): 5 (Herbicidal ratio of 90% or more (almost completely withered))
- Q: Galium spurium, herbicidal effect grade (Galium spurium): 0 (Herbicidal ratio of 5% or lower (almost no effect))
- Herbicidal effect grade, G: Setaria viridis (Setaria viridis [7]; [8]): 3 (Herbicidal ratio of 40% or higher and lower than 70%)
- Herbicidal effect grade, P: Stellaria media (Stellaria media; [8]): 0 (Herbicidal ratio of 5% or lower (almost no effect))

Structure (SMILES): CON=C(CC1CC(O)=C(c2c(C)cc(C)cc2OC)C1=O)C1CC1 (mixture of isomers) [13-002]
- H: Echinochloa crus-galli var. crus-galli, herbicidal effect grade [1]: 5 (Herbicidal ratio of 90% or more (almost completely withered))
- f: beet, effect on crop grade (beet): 3 (Herbicidal ratio of 40% or higher and lower than 70%)
- F: Digitaria ciliaris, herbicidal effect grade (Digitaria ciliaris; [8]): 5 (Herbicidal ratio of 90% or more (almost completely withered))
- B (Scirpus juncoides) herbicidal effect grade (Scirpus juncoides): 4 (Herbicidal ratio of 70% or higher and lower than 90%)
- R: Veronica persica, herbicidal effect grade (Veronica persica; [8]): 0 (Herbicidal ratio of 5% or lower (almost no effect))
- Herbicidal effect grade, C: Monochoria vaginalis (Monochoria vaginalis): 2 (Herbicidal ratio of 20% or higher and lower than 40%)
- b (directly sowed rice plant) effect on crop grade [2]: 5 (Herbicidal ratio of 90% or more (almost completely withered))
- H: Echinochloa crus-galli var. crus-galli, herbicidal effect grade [3, 8]: 5 (Herbicidal ratio of 90% or more (almost completely withered))
- d: soybean, effect on crop grade (soybean [4]): 2 (Herbicidal ratio of 20% or higher and lower than 40%)
- g: rapeseed, effect on crop grade (rapeseed): 4 (Herbicidal ratio of 70% or higher and lower than 90%)
- d: soybean, effect on crop grade (soybean [5]; [8]): 1 (Herbicidal ratio of 5% or higher and lower than 20%)
- G: Setaria viridis, herbicidal effect grade (Setaria viridis [6]): 5 (Herbicidal ratio of 90% or more (almost completely withered))
- Q: Galium spurium, herbicidal effect grade (Galium spurium): 4 (Herbicidal ratio of 70% or higher and lower than 90%)
- G: Setaria viridis, herbicidal effect grade (Setaria viridis [7]; [8]): 5 (Herbicidal ratio of 90% or more (almost completely withered))
- P: Stellaria media, herbicidal effect grade (Stellaria media; [8]): 0 (Herbicidal ratio of 5% or lower (almost no effect))

Structure (SMILES): CC(CC1CC(O)=C(c2c(C)cc(C)cc2C)C1=O)=NOCc1cccc(Cl)c1 (stereo not drawn) [1-114]
- H: Echinochloa crus-galli var. crus-galli, herbicidal effect (criteria 0-5) [1]: 5 (Herbicidal ratio of 90% or more (almost completely withered))
- f: beet, effect on crop (criteria 0-5) (beet): 0 (Herbicidal ratio of 5% or lower (almost no effect))
- F: Digitaria ciliaris, herbicidal effect grade (Digitaria ciliaris; 320 g/ha): 5 (Herbicidal ratio of 90% or more (almost completely withered))
- Herbicidal effect grade, B: Scirpus juncoides (Scirpus juncoides): 5 (Herbicidal ratio of 90% or more (almost completely withered))
- R: Veronica persica, herbicidal effect grade (Veronica persica; 320 g/ha): 0 (Herbicidal ratio of 5% or lower (almost no effect))
- Herbicidal effect grade, C: Monochoria vaginalis (Monochoria vaginalis): 4 (Herbicidal ratio of 70% or higher and lower than 90%)
- effect on crop b (directly sowed rice plant), grade 0-5 [2]: 5 (Herbicidal ratio of 90% or more (almost completely withered))
- H: Echinochloa crus-galli var. crus-galli, herbicidal effect grade ([3]; 320 g/ha): 0 (Herbicidal ratio of 5% or lower (almost no effect))
- d: soybean, effect on crop (criteria 0-5) (soybean [4]): 0 (Herbicidal ratio of 5% or lower (almost no effect))
- g: rapeseed, effect on crop (criteria 0-5) (rapeseed): 4 (Herbicidal ratio of 70% or higher and lower than 90%)
- d: soybean, effect grade on crop (soybean [5]): 0 (Herbicidal ratio of 5% or lower (almost no effect))
- G: Setaria viridis, herbicidal effect (criteria 0-5) (Setaria viridis [6]): 5 (Herbicidal ratio of 90% or more (almost completely withered))
- Q: Galium spurium, herbicidal effect (criteria 0-5) (Galium spurium): 0 (Herbicidal ratio of 5% or lower (almost no effect))
- G: Setaria viridis, herbicidal effect grade (Setaria viridis [7]; 320 g/ha): 5 (Herbicidal ratio of 90% or more (almost completely withered))
- P: Stellaria media, herbicidal effect grade (Stellaria media; 320 g/ha): 0 (Herbicidal ratio of 5% or lower (almost no effect))

Structure (SMILES): COc1ccc(CON=C(C)CC2CC(O)=C(c3c(C)cc(C)cc3C)C2=O)cc1 (stereo not drawn) [1-112]
- H: Echinochloa crus-galli var. crus-galli, herbicidal effect (criteria 0-5) [1]: 5 (Herbicidal ratio of 90% or more (almost completely withered))
- f: beet, effect on crop (criteria 0-5) (beet): 0 (Herbicidal ratio of 5% or lower (almost no effect))
- F: Digitaria ciliaris, herbicidal effect grade (Digitaria ciliaris; 320 g/ha): 4 (Herbicidal ratio of 70% or higher and lower than 90%)
- Herbicidal effect grade, B: Scirpus juncoides (Scirpus juncoides): 5 (Herbicidal ratio of 90% or more (almost completely withered))
- R: Veronica persica, herbicidal effect grade (Veronica persica; 320 g/ha): 0 (Herbicidal ratio of 5% or lower (almost no effect))
- Herbicidal effect grade, C: Monochoria vaginalis (Monochoria vaginalis): 4 (Herbicidal ratio of 70% or higher and lower than 90%)
- effect on crop b (directly sowed rice plant), grade 0-5 [2]: 5 (Herbicidal ratio of 90% or more (almost completely withered))
- H: Echinochloa crus-galli var. crus-galli, herbicidal effect grade ([3]; 320 g/ha): 4 (Herbicidal ratio of 70% or higher and lower than 90%)
- d: soybean, effect on crop (criteria 0-5) (soybean [4]): 0 (Herbicidal ratio of 5% or lower (almost no effect))
- g: rapeseed, effect on crop (criteria 0-5) (rapeseed): 4 (Herbicidal ratio of 70% or higher and lower than 90%)
- d: soybean, effect grade on crop (soybean [5]): 0 (Herbicidal ratio of 5% or lower (almost no effect))
- G: Setaria viridis, herbicidal effect (criteria 0-5) (Setaria viridis [6]): 4 (Herbicidal ratio of 70% or higher and lower than 90%)
- Q: Galium spurium, herbicidal effect (criteria 0-5) (Galium spurium): 3 (Herbicidal ratio of 40% or higher and lower than 70%)
- G: Setaria viridis, herbicidal effect grade (Setaria viridis [7]; 320 g/ha): 5 (Herbicidal ratio of 90% or more (almost completely withered))
- P: Stellaria media, herbicidal effect grade (Stellaria media; 320 g/ha): 0 (Herbicidal ratio of 5% or lower (almost no effect))
